The source of these data is BindingDB's records for doi:10.7270/Q2R49PCF (Burnham Center For Chemical Genomics, 2012).

pIC50: −log10 of the molar value. Bounds are passed on as bounds.

This experiment has as its target T1, Sentrin-specific protease 1 (Homo sapiens, UniProt Q9P0U3).
T1 sequence (Q9P0U3 whole entry): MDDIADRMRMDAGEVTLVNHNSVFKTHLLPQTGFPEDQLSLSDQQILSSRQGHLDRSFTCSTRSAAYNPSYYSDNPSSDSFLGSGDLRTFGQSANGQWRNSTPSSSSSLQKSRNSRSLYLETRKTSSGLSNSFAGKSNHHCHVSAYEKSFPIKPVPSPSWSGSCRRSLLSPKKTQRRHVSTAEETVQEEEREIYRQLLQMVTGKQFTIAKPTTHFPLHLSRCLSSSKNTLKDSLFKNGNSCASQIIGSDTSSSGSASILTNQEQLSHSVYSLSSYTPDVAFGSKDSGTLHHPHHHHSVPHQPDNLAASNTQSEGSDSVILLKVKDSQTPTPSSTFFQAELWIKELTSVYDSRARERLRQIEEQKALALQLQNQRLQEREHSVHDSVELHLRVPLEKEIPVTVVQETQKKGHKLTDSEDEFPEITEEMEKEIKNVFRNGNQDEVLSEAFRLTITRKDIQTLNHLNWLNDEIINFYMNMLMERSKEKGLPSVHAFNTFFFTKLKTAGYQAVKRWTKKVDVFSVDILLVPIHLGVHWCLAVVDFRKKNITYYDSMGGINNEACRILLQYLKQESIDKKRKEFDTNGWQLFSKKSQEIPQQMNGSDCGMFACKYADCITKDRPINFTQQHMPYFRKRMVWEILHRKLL
By pIC50 is commonly meant the negative decadic logarithm of the IC50, by convention in mol/L. Low readings indicate a large IC50, high ones a small IC50. Compound `CCOC1=CC(=Cc2sc(=O)[nH]c2N)C=CC1=O` had a pIC50 of 4.74.

`O=[N+]([O-])c1ccc(C/N=N/c2ccccc2)cc1` had a negative-log IC50 (pIC50) of 5.14.

On to `COc1ccc(-n2c(O)c3c(c2O)C(C(=O)c2ccc(Cl)cc2)N2CCCC32)cc1` (stereo not drawn), for which the pIC50 is 5.36.

Compound `O=C1CC(=Nc2ccc(Cl)cc2)C(=O)N1c1ccc(Cl)cc1` [1-(4-chlorophenyl)-3-[(4-chlorophenyl)amino]pyrrole-2,5-dione] showed a pIC50 of 4.90.

`CC1(C)CC(=O)C2Sc3ccccc3N=C2C1` (stereo not drawn) [2,2-Dimethyl-2,3-dihydro-1H,10H-phenothiazin-4-one]: the pIC50 is 4.37. Compared with the last compound, the pIC50 is 0.53 log units lower.

Compound `O=C(Cc1cccc2ccccc12)NC(NC(=S)Nc1ccccc1Cl)C(Cl)(Cl)Cl` (stereo not drawn) [2-(1-naphthyl)-N-[2,2,2-trichloro-1-({[(2-chlorophenyl)amino]carbonothioyl}amino)ethyl]acetamide] had a negative logarithm of the IC50 (pIC50) of 5.06.

In turn, `COc1ccc(P2(=O)Nc3ccccc3N2)cc1` [2-(4-methoxyphenyl)-1,3-dihydro-1,3,2-benzodiazaphosphole 2-oxide] showed a pIC50 of less than 4.10.

The compound `N#CC1C(=N)Oc2cc(Nc3ccccc3)ccc2C1c1ccncc1` (stereo not drawn) [2-amino-7-anilino-4-pyridin-4-yl-4H-1-benzopyran-3-carbonitrile] gave a negative-log IC50 (pIC50) of 4.52.

In the case of `CCN1C(=O)c2cccc3c(NC(=O)c4cccc(-n5c(O)ccc5O)c4)ccc1c23` [3-(2,5-dioxopyrrolidin-1-yl)-N-(1-ethyl-2-oxobenzo[cd]indol-6-yl)benzamide], the pIC50 is 4.95.

`COc1ccc(C=Nn2c(O)csc2=S)cc1Br` [3-[(E)-(3-bromo-4-methoxyphenyl)methylideneamino]-2-sulfanylidene-4-thiazolidinone] had a pIC50 of 5.01.

On to `O=C1CC(=O)c2cccc3cccc1c23` [3-hydroxy-1H-phenalen-1-one], for which the pIC50 was 5.07.

Compound `Oc1c2c(c(O)n1-c1ccccn1)C(c1ccccc1)C=CC2c1ccccc1` (stereo not drawn) [4,7-diphenyl-2-pyridin-2-yl-3a,4,7,7a-tetrahydroisoindole-1,3-dione] showed a pIC50 of 5.10.

In turn, `COc1nccnc1NS(=O)(=O)c1ccc(NC(=S)NC(=O)c2ccc(F)cc2)cc1` [4-[3-(4-Fluoro-benzoyl)-thioureido]-N-(3-methoxy-pyrazin-2-yl)-benzenesulfonamide] had a negative-log IC50 (pIC50) of 4.81.

With `O=C(O)c1ccc(N=NCc2cccc3nccnc23)cc1` [4-[(2E)-2-(5-quinoxalinylmethylidene)hydrazinyl]benzoic acid], the pIC50 was 5.05.

In turn, `CC(=O)Oc1ccc(-n2c(O)c3c(c2O)C(C(=O)c2ccc(Cl)cc2)N2CCCC32)cc1` (stereo not drawn) [Acetic acid 4-[4-(4-chloro-benzoyl)-1,3-dioxo-octahydro-pyrrolo[3,4-a]pyrrolizin-2-yl]-phenyl ester] gave a pIC50 of 5.33.

`O=C1CCCC2=Nc3cc(Cl)ccc3SC12` (stereo not drawn) [MLS000333002] had a pIC50 of 4.77. Against the preceding compound, the pIC50 is 0.56 log units lower.

Turning to `CN(C)c1ccc(C=NNC(=O)C(=O)CC2=NC3(CCCC3)Cc3ccccc32)cc1` [MLS000589038], the pIC50 was 4.88.

In the case of `COc1ccc(-n2c(O)c3c(c2O)C(C(=O)c2ccccc2)N2CCCC32)cc1` (stereo not drawn) [MLS000762485], the negative-log IC50 (pIC50) is 4.96.

For `O=C(c1ccccc1)[C@@H]1c2c(c(O)n(-c3ccc(F)cc3)c2O)C2CCCN21` (stereo partly drawn) [MLS000769629], the pIC50 is 5.11.

Compound `CCOc1cc(C=c2[nH]c3n(c2=O)CCCCC=3)ccc1O` [MLS000774439] showed a pIC50 of 5.12.

Turning to `CC1=C(C#N)C(=O)NC(=O)C1=NNc1ccc(Br)cc1C(=O)O` [MLS001213177], the pIC50 is 4.97.

`O=NC1c2cc([N+](=O)[O-])ccc2-c2cc(Cl)c(NC(=O)C(F)(F)F)cc21` (stereo not drawn) [MLS002707326] gave a negative-log IC50 (pIC50) of 5.54. Compared with the last compound, the pIC50 is 0.57 log units higher.

Regarding `Nc1ccc2c(c1)C(N=O)c1cc([N+](=O)[O-])ccc1-2` (stereo not drawn) [N-(2-azanyl-7-nitro-fluoren-9-ylidene)hydroxylamine], the pIC50 was 5.51.
